Data reported in ChEMBL document CHEMBL4837215, “Application of cation-π interactions in enzyme-substrate binding: Design, synthesis, biological evaluation, and molecular dynamics insights of novel hydrophilic substrates for NQO1” (Eur J Med Chem, 2021).
≈ marks a conversion by molar mass, not a printed value. Calls of active or inactive are those of the source. No cut-off for these calls is given here.

Experiments:
[1] = Selectivity index, ratio of IC50 for NQO1-deficient human L02 cells to IC50 for human A549 cells overexpressing NQO1 incubated for 72 hrs by MTT assay
[2] = Selectivity index, ratio of IC50 for NQO1-deficient human NCI-H596 cells to IC50 for human A549 cells overexpressing NQO1 incubated for 72 hrs by MTT assay
A549/TR = assay: Cytotoxicity against human A549/Taxol cells overexpressing NQO1 assessed as reduction in cell viability incubated for 72 hrs by MTT assay; assay type: functional, cell-based
A549 [3] = assay: Cytotoxicity against NQO1-deficient human A549 cells assessed as reduction in cell viability pretreated with DIC followed by compound addition and incubated for 72 hrs by MTT assay; assay type: functional, cell-based
[4] = Selectivity index, ratio of IC50 for human A549 cells overexpressing NQO1 to IC50 for NQO1-deficient human A549 cells assessed as reduction in cell viability pretreated with DIC followed by compound addition and measured after 72 hrs by MTT assay
NCI-H596 = assay: Cytotoxicity against NQO1-deficient human NCI-H596 cells assessed as reduction in cell viability incubated for 72 hrs by MTT assay; assay type: functional, cell-based; settings: NCI-H596, 72 h
A549 [5] = assay: Cytotoxicity against human DPP-resistant A549 cells overexpressing NQO1 assessed as reduction in cell viability incubated for 72 hrs by MTT assay; assay type: functional, cell-based; settings: A549, 72 h
L02 = assay: Cytotoxicity against NQO1-deficient human L02 cells assessed as reduction in cell viability incubated for 72 hrs by MTT assay; assay type: cell-based; settings: L02, 72 h
[6] = target: NAD(P)H dehydrogenase [quinone] 1 (Homo sapiens) (UniProt P15559); assay: Substrate activity at recombinant human NQO1 assessed as enzymatic reduction rate at 10 uM
Sequence of NAD(P)H dehydrogenase [quinone] 1 (Homo sapiens) (P15559 whole entry): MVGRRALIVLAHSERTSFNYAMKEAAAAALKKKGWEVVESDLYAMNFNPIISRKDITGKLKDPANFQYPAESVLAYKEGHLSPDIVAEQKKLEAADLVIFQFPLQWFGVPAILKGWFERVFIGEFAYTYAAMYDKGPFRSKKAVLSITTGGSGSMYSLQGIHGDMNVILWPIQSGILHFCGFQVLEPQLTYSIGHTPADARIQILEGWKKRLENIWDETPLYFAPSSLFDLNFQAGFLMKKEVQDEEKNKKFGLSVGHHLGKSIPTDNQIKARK

A549 [7] = assay: Cytotoxicity against human A549 cells overexpressing NQO1 assessed as reduction in cell viability incubated for 72 hrs by MTT assay; assay type: functional, cell-based; settings: A549, 72 h
A549 [8] = assay: Induction of superoxide anion generation in human A549 cells at 1 to 10 uM incubated for 3 hrs by […] staining based confocal laser scanning microscopic method; assay type: functional, cell-based; settings: dose 1-10 µM
A549 [9] = assay: Induction of apoptosis in human A549 cells assessed as condensed nuclei at 1 to 10 uM measured after 24 hrs by DAPI based confocal laser scanning microscopic method; assay type: functional, cell-based; settings: dose 1-10 µM
[10] = Solubility of the compound in pH 3 after 8 hrs by potentiometric titration method; assay type: physicochemical; settings: buffer
[11] = Intrinsic solubility of the compound after 8 hrs by potentiometric titration method; assay type: physicochemical; settings: read-out: Intrinsic_solubility
[12] = target: NAD(P)H dehydrogenase [quinone] 1 (Homo sapiens) (UniProt P15559); assay: Induction of recombinant human NQO1-mediated ROS generation assessed as rate of reduction of cytochrome C at 25 uM in presence of DIC by spectrophotometric assay
A549 [13] = assay: Induction of ROS generation in human A549 cells at 10 uM pretreated with DIC or NAC for 1 hr followed by compound addition and measured after 3 hrs by DCFH-DA staining based confocal laser scanning microscopic method; assay type: functional, cell-based
A549 [14] = assay: Induction of superoxide anion generation in human A549 cells at 10 uM pretreated with DIC or NAC for 1 hr followed by compound addition and measured after 3 hrs by […] staining based confocal laser scanning microscopic method; assay type: functional, cell-based
[15] = Lipophilicity, logD of the compound at pH 7.4 by potentiometric titration method; assay type: physicochemical; settings: buffer
[16] = target: NAD(P)H dehydrogenase [quinone] 1 (Homo sapiens) (UniProt P15559); assay: Induction of recombinant human NQO1-mediated ROS generation assessed as rate of reduction of cytochrome C at 25 uM by spectrophotometric assay; settings: filed as activator
A549 [17] = assay: Induction of ROS generation in human A549 cells at 1 to 10 uM incubated for 3 hrs by DCFH-DA staining based confocal laser scanning microscopic method; assay type: functional, cell-based; settings: dose 1-10 µM

Row | Structure (SMILES) | Ratio IC50 [1] | IC50 (L02) | Activity [6] | IC50 (A549 [7]) | further results
1 | CC1(C)CCC2=C(O1)c1ccccc1C(=O)C2=O [LAPACHONE] | 1.68 | 9.6 µM | – | – | Ratio IC50 [2]: 4.7; IC50 (A549/TR): 11 µM; IC50 (A549 [3]): 29 µM; Ratio IC50 [4]: 5.1; IC50 (NCI-H596): 27 µM; IC50 (A549 [5]): 16 µM
2 | Cc1cc2c(cc1C)-c1oc(CN3CCC(N4CCCC4)CC3)c(C)c1C(=O)C2=O | 3.58 | 31.2 µM | 848 µmol/min | 8.7 µM | –
3 | Cc1cc2c(cc1C)-c1oc(CN3CCN(S(C)(=O)=O)CC3)c(C)c1C(=O)C2=O | 4.33 | 31.2 µM | 871 µmol/min | 7.2 µM | –
4 | Cc1cc2c(cc1C)-c1oc(CN3CCN(C)CC3)c(C)c1C(=O)C2=O | 15.06 | 36.2 µM | 1260 µmol/min | 2.4 µM | Activity (A549 [8]): Active; Ratio IC50 [2]: 11; IC50 (A549/TR): 4.5 µM; Activity (A549 [9]): Active; solubility at 8 h [10]: > 1000 µg/mL; solubility at 8 h [11]: 110 µg/mL (≈ 312 µM); IC50 (A549 [3]): 30 µM; Activity [12]: inactive; Activity (A549 [13]): inactive; Activity (A549 [14]): inactive; Ratio IC50 [4]: >12.5; logD [15]: 1.97; Activity [16]: Active; IC50 (NCI-H596): 27 µM; Activity (A549 [17]): Active; IC50 (A549 [5]): 4.8 µM
5 | Cc1cc2c(cc1C)-c1oc(CN3CCN(C4CC4)CC3)c(C)c1C(=O)C2=O | 8.86 | 34.6 µM | 1100 µmol/min | 3.9 µM | –
6 | Cc1cc2c(cc1C)-c1oc(CN3CCC(N4CCOCC4)CC3)c(C)c1C(=O)C2=O | 5.16 | 28.9 µM | 951 µmol/min | 5.6 µM | –
7 | Cc1cc2c(cc1C)-c1oc(CN(C)C)c(C)c1C(=O)C2=O | 3.12 | 46.9 µM | 704 µmol/min | 15 µM | –
8 | CCN1CCN(Cc2oc3c(c2C)C(=O)C(=O)c2cc(C)c(C)cc2-3)CC1 | 12.36 | 35.8 µM | 1200 µmol/min | 2.9 µM | solubility at 8 h [10]: > 1000 µg/mL; solubility at 8 h [11]: 82 µg/mL (≈ 224 µM); logD [15]: 1.99
9 | Cc1cc2c(cc1C)-c1oc(CN3CCN4CCCC4C3)c(C)c1C(=O)C2=O (stereo not given) | 7.66 | 32.9 µM | 1070 µmol/min | 4.3 µM | –
10 | Cc1cc2c(cc1C)-c1oc(CN3CCOCC3)c(C)c1C(=O)C2=O | 5.81 | 28.5 µM | 996 µmol/min | 4.9 µM | –
11 | Cc1cc2c(cc1C)-c1oc(CN3CCN4CCCCC4C3)c(C)c1C(=O)C2=O (stereo not given) | 7.02 | 31.6 µM | 1030 µmol/min | 4.5 µM | –
12 | Cc1cc2c(cc1C)-c1oc(CN3CCC(N4CCCCC4)CC3)c(C)c1C(=O)C2=O | 4.45 | 40.5 µM | 795 µmol/min | 9.1 µM | –
13 | Cc1cc2c(cc1C)-c1oc(CN3CCCCC3)c(C)c1C(=O)C2=O | 3.79 | 45.5 µM | 768 µmol/min | 12 µM | –
14 | Cc1cc2c(cc1C)-c1oc(CN3CCC(N4CCN(C)CC4)CC3)c(C)c1C(=O)C2=O | 4.38 | 29.8 µM | 904 µmol/min | 6.8 µM | –
15 | Cc1cc2c(cc1C)-c1oc(CN3CCN(CCO)CC3)c(C)c1C(=O)C2=O | 11.56 | 35.8 µM | 1160 µmol/min | 3.1 µM | solubility at 8 h [10]: > 1000 µg/mL; solubility at 8 h [11]: 61 µg/mL (≈ 159 µM); logD [15]: 2.01
16 | Cc1cc2c(cc1C)-c1occ(C)c1C(=O)C2=O | 4.24 | 31.4 µM | 690 µmol/min | 7.4 µM | –
